In PubChem BioAssay AID1918939 (Molecular Pharmacology Branch, DTP, NCI, 2023):
pIC50: −log10 of the molar value.

System: 653999-131-R-J2-PDC complex spheroid viability
Assay: Anticancer human tumor 653999-131-R-J2-PDC patient-derived lung adenocarcinoma cell line growth inhibition
Conditions: for pIC50: curve of first compound; for viability, T/C: stronger effect = lower value
Procedure, shortened: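 Multicellular complex spheroids of tumor cells with human endothelial cells (HUVEC) and mesenchymal stem cells; the LSD1 inhibitor iadademstat was combined with standard-of-care or investigational agents. Top concentration at or near clinical Cmax, half-log dilutions; final DMSO ≤0.25%.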

[1] = second compound 0.1 µM, first compound 0.0316 µM
[2] = second compound 0.1 µM, first compound 0.1 µM
[3] = second compound 0.1 µM, first compound 0.316 µM
[4] = second compound 0.1 µM, first compound 1 µM
[5] = second compound 0.1 µM, first compound 3.16 µM
[6] = second compound 0.1 µM, first compound 10 µM
[7] = second compound 0.316 µM, first compound 0.0316 µM
[8] = second compound 0.316 µM, first compound 0.1 µM
[9] = second compound 0.316 µM, first compound 0.316 µM
[10] = second compound 0.316 µM, first compound 1 µM
[11] = second compound 0.316 µM, first compound 3.16 µM
[12] = second compound 0.316 µM, first compound 10 µM
[13] = second compound 1 µM, first compound 0.0316 µM
[14] = second compound 1 µM, first compound 0.1 µM
[15] = second compound 1 µM, first compound 0.316 µM
[16] = second compound 1 µM, first compound 1 µM
[17] = second compound 1 µM, first compound 3.16 µM
[18] = second compound 1 µM, first compound 10 µM
[19] = second compound 3.16 µM, first compound 0.0316 µM
[20] = second compound 3.16 µM, first compound 0.1 µM
[21] = second compound 3.16 µM, first compound 0.316 µM
[22] = second compound 3.16 µM, first compound 1 µM
[23] = second compound 3.16 µM, first compound 3.16 µM
[24] = second compound 3.16 µM, first compound 10 µM
[25] = second compound 10 µM, first compound 0.0316 µM
[26] = second compound 10 µM, first compound 0.1 µM
[27] = second compound 10 µM, first compound 0.316 µM
[28] = second compound 10 µM, first compound 1 µM
[29] = second compound 10 µM, first compound 3.16 µM
[30] = second compound 10 µM, first compound 10 µM
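Note: spheroids exposed to agents for seven days before readout.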

Structure (SMILES)	pIC50 (second compound 0.1 µM)	pIC50 (second compound 0.316 µM)	pIC50 (second compound 1 µM)	pIC50 (second compound 3.16 µM)	pIC50 (second compound 10 µM)	viability, T/C [1]	viability, T/C [2]	viability, T/C [3]	viability, T/C [4]	viability, T/C [5]	viability, T/C [6]	viability, T/C [7]	viability, T/C [8]	viability, T/C [9]	viability, T/C [10]	viability, T/C [11]	viability, T/C [12]	viability, T/C [13]	viability, T/C [14]	viability, T/C [15]	further results
CC(C)c1c(-c2ccccc2)nc2c(C#N)c[nH]n2c1=O + NC1CCC(NC2CC2c2ccccc2)CC1	< 5.00	< 5.00	< 5.00	< 5.00	< 5.00	92.5%	97.8%	91.4%	80.6%	91.8%	91.5%	94.5%	89.6%	100%	82.3%	85.5%	77.5%	94.2%	105%	92.8%	viability, T/C [16]: 84.9%; viability, T/C [17]: 87.2%; viability, T/C [18]: 85.1%; viability, T/C [19]: 85.9%; viability, T/C [20]: 103%; viability, T/C [21]: 84.6%; viability, T/C [22]: 95.1%; viability, T/C [23]: 89%; viability, T/C [24]: 80%; viability, T/C [25]: 91.9%; viability, T/C [26]: 88.1%; viability, T/C [27]: 82.6%; viability, T/C [28]: 78.1%; viability, T/C [29]: 75.5%; viability, T/C [30]: 69.4%
COc1ccc([C@@H](O)c2cc(-c3ncnc4cc(N5CCOCC5)ccc34)c(F)cc2Cl)nn1 + NC1CCC(NC2CC2c2ccccc2)CC1	5.74	5.76	5.59	5.65	5.76	97.4%	94.9%	68.8%	61.5%	42%	30.9%	106%	85.3%	74.7%	60.8%	39%	28.1%	96.5%	98%	76.6%	viability, T/C [16]: 68.5%; viability, T/C [17]: 45.7%; viability, T/C [18]: 29.4%; viability, T/C [19]: 84.2%; viability, T/C [20]: 114%; viability, T/C [21]: 78.1%; viability, T/C [22]: 65.2%; viability, T/C [23]: 46.4%; viability, T/C [24]: 31.5%; viability, T/C [25]: 108%; viability, T/C [26]: 98%; viability, T/C [27]: 72%; viability, T/C [28]: 57%; viability, T/C [29]: 44.6%; viability, T/C [30]: 29.4%
